Legend:
C57BL/6 mice [1] = assay: Open field test (OFT); assay type: in vivo; conditions: for time spent in the center of the arena in OFT (anxiety level) / number of total line crossings in OFT (locomotor activity): i.p. pretreatment, 10 min test session; for time spent in the center of the arena in OFT (anxiety level): ST-2300 10 or 15 mg/kg, PIM 5–15 mg/kg, DZP 1 mg/kg, vs controls; for number of total line crossings in OFT (locomotor activity): ST-2300 or PIM 5–15 mg/kg, C57BL/6 mice
Method: (§1) Inbred adult male C57BL/6 mice (aged 10–12 weeks and weighing 20–25 g) were obtained from the animal facility in the College of Medicine and Health Sciences, United Arab Emirates University. The animals were maintained in a separate air-conditioned room with controlled temperature and humidity (24 ± 2 °C and 55 ± 15%, respectively), with a 12 h light/dark cycle, and ad libitum to food and water. All the experiments were performed between 9.00 am and 3.00 pm. The procedures were approved by the Institutional Animal Ethics Committee of College of Medicine and Health Sciences/United Arab Emirates University (Approval No. ERA-2019-6010). To reduce the suffering of the animals, a minimum number of animals were used in this study, whereas the objectives were not compromised.
(§2) These experiments provide the first behavioral assessment of the ST-2300 in anxiety-like and depression-like behaviors in mice. All doses are expressed in terms of the free base of all test compounds. The drugs used in the current study were dissolved in saline and injected i.p. at a volume of 1 mL/kg. All experimental procedures were conducted in a blinded fashion in which the experimenter was uninformed about the specific treatment groups to which an animal group belonged. Saline, ST-2300 (5, 10, and 15 mg/kg), PIM (5, 10, and 15 mg/kg), FLX (10 mg/kg), RAM (10 mg/kg), and DZP (1 mg/kg) were injected i.p. 30–45 min before the beginning of the behavioral experiments.
To analyze the effect of ST-2300 on locomotion and anxiety behaviors in animals, OFT was carried out. In addition to locomotor activity, the OFT is usually used to measure anxiety-like behaviors in experimental rodents. The test provides a unique opportunity to systematically assess novel environment exploration, general locomotor activity, and provide an initial screen for anxiety-related behavior in experimental rodents. The OF box consisted of a square box (45 × 45 × 30 cm). A 23 × 23 cm area in the center region was defined as the central arena, and the remaining area was defined as periphery area. The mice with a higher degree of anxiety prefer to stay closer to the walls of the box and spend less time in the center, whereas increased time spent in the central area indicates low anxiety level and high exploratory behaviors. The first 5 min of the experiment were considered as habituation, followed by 10 min test session. Total distance moved in the whole arena, time spent in the center, and in the periphery were recorded for 10 min using a charge-coupled, camera-assisted, motion-tracking apparatus and software (EthoVision 3.1, Noldus Information Technology, Wageningen, The Netherlands). After each mouse completed the test, the OF chamber was cleaned thoroughly with 70% (volume/volume; vol/vol) alcohol.

human 5-HT7b = target: T1, human 5-HT7b (Homo sapiens, UniProt P34969); assay: Radioligand displacement assay at 5-HT7 ([3H]-5-CT, HEK293 cells); assay type: binding; conditions: HEK293 cells stably expressing h5-HT7, read-out: Ki (n), 5-HT7
T1 construct: expressed in transfected cells; host or cells: HEK293
T1 sequence (P34969 1-432): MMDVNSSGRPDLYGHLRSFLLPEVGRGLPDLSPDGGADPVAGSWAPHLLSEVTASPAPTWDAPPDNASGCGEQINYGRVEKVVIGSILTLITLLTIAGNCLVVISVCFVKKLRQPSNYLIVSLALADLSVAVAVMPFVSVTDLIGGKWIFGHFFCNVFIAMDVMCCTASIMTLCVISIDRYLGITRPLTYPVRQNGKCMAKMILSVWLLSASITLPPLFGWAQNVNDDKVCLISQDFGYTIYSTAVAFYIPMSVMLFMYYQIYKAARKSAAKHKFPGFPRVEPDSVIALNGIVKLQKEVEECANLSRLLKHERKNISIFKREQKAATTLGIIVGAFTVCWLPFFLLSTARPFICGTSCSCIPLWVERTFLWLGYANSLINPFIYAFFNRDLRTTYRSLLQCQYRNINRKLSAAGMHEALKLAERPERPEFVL
Method: HEK293 cells with a stable expression of human 5-HT1A, 5-HT6, 5-HT7b, and D2L (prepared with the use of Lipofectamine 2000), or CHO-K1 cells with plasmids containing the sequence coding for the human serotonin 5-HT2A receptor (PerkinElmer), were maintained at 37 °C in a humidified atmosphere with 5% CO2 and grown in Dulbecco’s Modified Eagle Medium containing 10% dialyzed fetal bovine serum and 500 µg/mL G418 sulfate. For membrane preparation, cells were subcultured in 150 cm^2 flasks, grown to 90% confluence, washed twice with prewarmed to 37 °C phosphate buffered saline (PBS) and pelleted by centrifugation (200× g) in PBS containing 0.1 mM EDTA and 1 mM dithiothreitol. Prior to membrane preparation, the pellets were stored at −80 °C.
Cell pellets were thawed and homogenized in 10 volumes of assay buffer using an Ultra Turrax tissue homogenizer, and were then centrifuged twice at 35,000× g for 15 min at 4 °C, with incubations for 15 min at 37 °C in between. […] The process of equilibration was terminated by rapid filtration through Unifilter plates with a 96-well cell harvester and the radioactivity retained on the filters was quantified on a Microbeta plate reader (PerkinElmer, Waltham, MA, USA). […] The inhibition constants (Ki) were calculated from the Cheng-Prusoff equation [38]. Results are expressed as means of two separate experiments.

C57BL/6 mice [2] = assay: Tail suspension test (TST); assay type: in vivo; conditions: for immobility time in TST: acute i.p. pretreatment, ST-2300 10 or 15 mg/kg, PIM 5–15 mg/kg, FLX 10 mg/kg, vs saline controls, C57BL/6 mice, 6 min
Method: as §1, §2
This experimental protocol was followed as previously described, however with slight modifications. Each mouse was suspended on the edge of a rod 50 cm above a table top using adhesive Scotch tape placed approximately 1 cm from the tip of the tail. Tail climbing was prevented by passing the mouse’s tail through a small plastic cylinder prior to suspension, as described by Can et al.. The duration of immobility was manually scored for a 6 min observation period. Mice were considered immobile only when they hung down passively and were completely motionless. The parameter recorded was the number of seconds spent immobile.

| SMILES | time spent in the center of the arena in OFT (anxiety level) (C57BL/6 mice [1]) | number of total line crossings in OFT (locomotor activity) (C57BL/6 mice [1]) | Ki (human 5-HT7b) [µM] | immobility time in TST (C57BL/6 mice [2]) | time spent in the center in OFT, co-administration of RAM (C57BL/6 mice [1]; ST-2300 10 mg/kg i.p. co-administered with RAM 10 mg/kg i.p.) | immobility time in TST, co-administration of RAM (C57BL/6 mice [2]; ST-2300 10 mg/kg i.p. co-administered with H3R agonist RAM 10 mg/kg i.p., vs ST-2300 alone) |
| --- | --- | --- | --- | --- | --- | --- |
| CC(C)COc1ccc(CNC(=O)N(Cc2ccc(F)cc2)C2CCN(C)CC2)cc1 [Pimavanserin, reference compound] | failed to provide any appreciable effects on the anxiety levels | did not alter the number of total line crossings | > 10 | failed to affect the overall immobility time | – | – |
| CN1CCC(N(Cc2ccc(F)cc2)C(=O)NCc2ccc(OCCCN3CCCCC3)cc2)CC1 [ST-2300, 1-(4-Fluorobenzyl)-1-(1-methylpiperidin-4-yl)-3-{4-[3-(piperidin-1-yl)propoxy]benzyl}urea] | dose-dependent increase of time spent in the center of the arena | did not alter the number of total line crossings | > 10 | significantly reduced the immobility time | could not be reversed by co-administration with RAM | reversed by systemic co-administration with the CNS-penetrant H3R agonist RAM |

— paper PMC9138994 (Biomolecules, 2022)
